Tested on: Candida strains (clinical isolates from patients suffering from Candidal vaginitis)
Assay: Inhibition of Candida growth in broth pH 4.5 (turbidity after 72 hours)
Format: cell-based
Conditions: for Candida growth, Strain 1: Strain 1, 37.5° C.; for Candida growth, Strain 2: Strain 2, 37.5° C.; for Candida growth, Strain 3: Strain 3, 37.5° C.; for Candida growth, Strain 4: Strain 4, 37.5° C.; for Candida growth, Strain 5: Strain 5, 37.5° C.; for Candida growth, Strain 6: Strain 6, 37.5° C.; for Candida growth, Strain 7: Strain 7, 37.5° C.; for Candida growth, Strain 8: Strain 8, 37.5° C.; for Candida growth, Strain 9: Strain 9, 37.5° C.; for Candida growth, Strain 10: Strain 10, 37.5° C.; for Candida growth, Strain 11: Strain 11, 37.5° C.; for number of the 11 Candida strains that grew: of 11 strains
From the text: 1. […] Unless otherwise illustrated, the solutions in the experiments are all aqueous solutions. 2. Experimental Method: (1) Experimental Materials:
a) Experimental strains: 11 Candida strains, all of which were screened from the clinical isolates from patients suffering from Candidal vaginitis, and were capable of growing in broth comprising 0.025% (w/v) sodium benzoate.
b) Broth: 1% yeast extract powder, 9% sucrose, 0.025% Manganese sulfate (MnSO4.4H2O), 0.058% Magnesium sulphate (MgSO4.7H2O), and 0.9% lactic acid, wherein the pH value was adjusted to 4.5 and the broth was sterilized for use;
(2) Experimental Grouping:
The requirements for aseptic technique were strictly followed to prepare the following groups of sterile test tubes: • a) sodium benzoate group: a test tube containing 5 ml broth, to which 0.025% (w/v) sodium benzoate was added; • b) sodium benzoate+sodium dehydroacetate group: 6 test tubes each containing 5 ml broth, wherein 0.0025% (w/v), 0.005% (w/v), and 0.01% (w/v) sodium dehydroacetate were added to three tubes, respectively; 0.025% (w/v) sodium benzoate was added to each of the rest 3 tubes, and then 0.0025% (w/v), 0.005% (w/v), 0.01% (w/v) sodium dehydroacetate were added to them, respectively; • c) sodium benzoate+sodium propionate group: 6 test tubes each containing 5 ml broth, wherein 0.0625% (w/v), 0.125% (w/v), and 0.25% (w/v) sodium propionate were added to three tubes, respectively; 0.025% (w/v) sodium benzoate was added to each of the rest 3 tubes, and then 0.0625% (w/v), 0.125% (w/v), and 0.25% (w/v) sodium propionate were added to them, respectively; • d) sodium benzoate+potassium sorbate group: 6 test tubes each containing 5 ml broth, wherein 0.00625% (w/v), 0.0125% (w/v), and 0.025% (w/v) potassium sorbate were added to 3 tubes, respectively; 0.025% (w/v) sodium benzoate was added to each of the rest 3 tubes, and then 0.00625% (w/v), 0.0125% (w/v), and 0.025% (w/v) potassium sorbate were added to them, respectively; • e) sodium benzoate+Ethylparaben: 6 test tubes each containing 5 ml broth, wherein 0.0125% (w/v), 0.025% (w/v), and 0.05% (w/v) Ethylparaben were added to 3 tubes, respectively; 0.025% (w/v) sodium benzoate was added to each of the rest 3 tubes, and then 0.0125% (w/v), 0.025% (w/v), and 0.05% (w/v) Ethylparaben were added to them, respectively; • f) Positive control: a broth-containing test tube with Candida but without sodium benzoate, sodium dehydroacetate, sodium propionate, sorbic acid, or Ethylparaben. • g) Negative control: a broth-containing test tube without Candida, sodium benzoate, sodium dehydroacetate, sodium propionate, sorbic acid, or Ethylparaben; (3) Experimental Methods:
The Candidal suspensions were prepared under stringent aseptic manipulation techniques. The colonies of various Candidal strains were diluted with saline, respectively. The turbidity was adjusted with a turbiditor to 0.5M (about 10^8CFU/ml), and then 1 ml 0.5M bacterial solution was added to 9 ml broth and was 10 times diluted, so that each Candidal suspension comprised Candidal organisms at 10^7CFU/ml.
Under stringent aseptic manipulation techniques, 100 μl bacterial solution thus prepared was added to each of the aforesaid a˜f test tubes and the positive control tube, and no bacterial solution was added to the negative control tube g.
These tubes were incubated in a biochemical incubator at 37.5° C. for 72 hours. The turbidity of the test tubes were observed and recorded.

SMILES | Candida growth, Strain 1 | Candida growth, Strain 2 | Candida growth, Strain 3 | Candida growth, Strain 4 | Candida growth, Strain 5 | Candida growth, Strain 6 | Candida growth, Strain 7 | Candida growth, Strain 8 | Candida growth, Strain 9 | Candida growth, Strain 10 | Candida growth, Strain 11 | number of the 11 Candida strains that grew (listed as 0.0625% (w/v) sodium propionate) | number of the 11 Candida strains that grew | number of the 11 Candida strains that grew (listed as 0.0125% (w/v) Ethylparaben) | number of the 11 Candida strains that grew (listed as 0.05% (w/v) Ethylparaben) | number of the 11 Candida strains that grew (listed as 0.01% (w/v) sodium dehydroacetate)
CCC(=O)[O-].[Na+] [0.0625% sodium propionate, sodium propionate] | + | + | + | + | + | + | + | + | + | + | + | 11 |  |  |  | 
O=C([O-])c1ccccc1.[Na+] [0.025% sodium benzoate, sodium benzoate] | + | + | + | + | + | + | + | + | + | + | + |  | 11/11 |  |  | 
CCOC(=O)c1ccc(O)cc1 [0.0125% Ethylparaben, Ethylparaben] | + | + | + | + | + | + | + | + | + | + | + |  |  | 11 |  | 
CCOC(=O)c1ccc(O)cc1 [0.05% Ethylparaben, Ethylparaben] | − | + | + | + | − | + | + | + | − | + | + |  |  |  | 8 | 
CC(=O)c1c([O-])cc(C)oc1=O.[Na+] [0.005% sodium dehydroacetate, sodium dehydroacetate] | + | + | + | + | − | + | + | + | − | + | + |  |  |  |  | 
CC(=O)c1c([O-])cc(C)oc1=O.[Na+] [0.01% sodium dehydroacetate, sodium dehydroacetate] | + | − | + | + | − | + | + | + | − | + | − |  |  |  |  | 7
